Assay results: PMC6212948, “Fucoxanthin-Containing Cream Prevents Epidermal Hyperplasia and UVB-Induced Skin Erythema in Mice” (Marine Drugs, 2018)

Tests used:
[1] = test system: TPA-induced epidermal hyperplasia in mice dorsal skin; experiment: TPA-induced epidermal hyperplasia model; format: in vivo, Swiss CD-1 mice; conditions: topical cream 100 mg per site containing 200 µg drug, vs TPA-cream group
Protocol: Female Swiss CD-1 mice (n = 10 per group) were used to study the effect of FX on TPA-induced hyperplasia in mice dorsal skin. Briefly, the dorsal hair of animals was removed with an electric clipper and treated with depilatory cream (Deliplus, Barcelona, Spain). After 24 h, the animals were assigned to the different groups: Sham (vehicle: 100 mg of cream with 0.2% of ethanol); TPA control group; TPA-Cream (vehicle: 100 mg of cream with 0.2% of ethanol); Dex-cream (100 mg of cream per site, containing 200 µg of Dex dissolved in ethanol at 10 µg/mL); FX-cream formulation (100 mg of cream per site, containing 200 µg of FX dissolved in ethanol at 10 µg/mL). The creams were applied to the dorsal skin in an area of 1 cm^2 using a syringe, during 2 days before the hyperplasia induction. Mice were anesthetized with ketamine (100 mg/kg of animal) and diazepam (5 mg/kg of animal) during treatments and TPA challenge. On day 4, TPA (2 nmol of TPA, dissolved in 20 µL of ethanol) was topically applied to the same areas on all groups except in sham group. After 1 h, FX-cream, the Dex-cream or vehicle were administered following the mentioned protocol. This procedure was replicated during two consecutive days. After 24 h of the last TPA dorsal application (day 7), mice were sacrificed by cervical dislocation and punch biopsies from the treated dorsal skin were weighed to evaluate edema, before further processing for histology and biochemical parameters.
The measurement of MPO activity was used as a marker of neutrophil infiltration. The tissue was thawed, weighed and homogenized in 10 volumes of 50 mM-PBS (pH 7.4). Then, the homogenate was centrifuged at 20,000× g for 20 min at 4 °C and the pellet was again homogenized in 10 volumes of 50 mM-PBS (pH 6) containing hexadecyl trimethylammonium bromide (0.5%) and 10 mM-EDTA. This homogenate was subjected to one cycle of freezing/thawing and sonicated. […] The changes in absorbance were monitorized at 450 nm with a microplate reader (Labysystem Multiskan EX, Thermo Scientific, New York, NY, USA). MPO activity unit was defined as the amount of enzyme present that produced a change in absorbance of 1.0 unit/min at 37 °C in the final reaction volume containing acetate. Results are expressed as units/mg tissue.
The samples were fixed in paraformaldehyde, dehydrated by increasing concentrations of ethanol and embedded in paraffin. […] Epidermal thickness was measured by using Scientific Imaging Systems (Biophotonics ImageJ Analysis Software; National Institutes of Health, Rockville, MD, USA).
COX-2 expression was measured by immunohistochemical analysis by using a streptavidin-biotin-peroxidase method. […]

[2] = test system: HaCaT human keratinocytes; experiment: SRB cell viability assay, HaCaT keratinocytes; format: cell-based; conditions: for % Viability HaCaT keratinocytes (24 h): mean ± ES, n = 3
Protocol: (§1) The THP-1 human monocytic leukemia cell line and HaCaT human keratinocytes were obtained from the American Type Culture Collection (ATCC, Manassas, VA, USA). THP-1 cells were cultured in RPMI 1640 medium (GIBCO, Grand Island, New York, NY, USA) containing 10% heat-inactivated fetal bovine serum (FBS), 100 U/mL penicillin and 100 μg/mL streptomycin. HaCaT human keratinocytes were maintained in high glucose Dulbecco’s modified Eagle’s medium (DMEM, GIBCO, Grand Island, New York, NY, USA). Both cell lines were grown in a humidified atmosphere containing 5% CO2 at 37 °C [20].
(§2) SRB assay was used for determining the viability of THP-1 macrophages and HaCaT cells upon exposure to FX (Sigma-Aldrich, St. Louis, MO, USA). Firstly, for differentiation into macrophages, THP-1 cells were seeded into 96-well plates at 10^4 cells/well in presence of phorbol 12-myristate 13-acetate (PMA, Sigma-Aldrich, St. Louis, MO, USA) for a final concentration of 0.2 µM for 72 h in 96-well plates and HaCaT cells were seeded into 96-well plates in the growth medium at 10^4 cells/well for 24 h to ensure the adherence. Both cellular types were incubated in a humidified atmosphere of 5% CO2 at 37 °C. After that, cells were treated with FX at final concentrations range of 10–100 µM in DMSO 0.1% (v/v) and the cytotoxicity was measured after 24, 48 and 72 h of incubation. The absorbance was determined at 492 nm in a microplate spectrophotometer (Sinergy HT, Biotek®, Bad Friedrichshall, Germany).

[3] = test system: UVB-irradiated HaCaT cells; experiment: LDH assay in UVB-irradiated HaCaT keratinocytes; format: cell-based, human; conditions: 10, 30 and 50 μM, 1 h prior to UVB 50 mJ/cm^2, 24 h, dose-dependent
Protocol: (§3) Human keratinocytes were exposed to UVB radiation as previously described. Briefly, the cells were grown to confluence and were treated with different concentrations of FX (10, 30 and 50 µM) for 1 h. Then, the medium was removed and a thin layer of PBS was added. Cells were exposed to a single dose of UVB radiation (50 mJ/cm^2) for 1 min. The UVB source was a CL-1000M UV Crosslinker (UVP, Upland, CA, USA), which was used to deliver an energy spectrum of UVB light (280–315 nm; peak intensity, 302 nm). After UVB irradiation, the cells were supplied with fresh complete medium and incubated for 24 h.
The measure of cytosolic enzyme LDH is one of the commonly used methods for assessing loss of cellular membrane integrity. The assay is based on the conversion of […] in the presence of LDH with the consequence oxidation of NADH as previously described. HaCaT cells were seeded in 6-well plates (5 × 10^5 cells/well). After 24 h, cells were treated with FX (10, 30 and 50 μM) for 1 h and then, were irradiated with UVB. After 24 h, cell-free supernatants and cell lysates were mixed in a 96-well plate and the absorbance was read by using a microplate reader system (Sinergy HT, Biotek®, Bad Friedrichshall, Germany). LDH leakage was estimated calculating the LDH activity in the cell-free medium and LDH activity in lysates ratio. […]

[4] = test system: THP-1 macrophages; experiment: SRB cell viability assay, THP-1 macrophages; format: cell-based, human; conditions: for % Viability THP-1 macrophages (24 h): mean ± ES, n = 3
Protocol: as §1, §2

[5] = test system: UVB-irradiated HaCaT cells; experiment: Intracellular ROS (DCF-DA assay) in UVB-irradiated HaCaT keratinocytes; format: cell-based, human; conditions: 1 h prior to UVB 50 mJ/cm^2, 30 min after irradiation, vs UVB
Protocol: as §3
For quantification of ROS in HaCaT cells, the DCF-DA assay was employed. HaCaT cells were seeded in nin96-well plates (10^4 cells/well). Non-irradiated cells were used as negative control. After 24 h, cells were treated with FX (10, 30 and 50 µM) for 1 h and then, were exposed to UVB. Post irradiation, cells were incubated with 2′,7′-dichlorodihydrofluorescein diacetate (DCFH-DA) solution (5 mg/mL) in PBS for 30 min [63]. The fluorescence of the 2′,7′-dichlorofluorescein (DCF) product was determined using a fluorescence plate reader (Sinergy HT, Biotek®, Bad Friedrichshall, Germany) at 485 nm for excitation and 535 nm for emission.

[6] = test system: TNF-α production in LPS-stimulated THP-1 macrophages; experiment: TNF-α production in LPS-stimulated THP-1 macrophages (ELISA); format: cell-based, human
Protocol: THP-1 monocytes were differentiated into macrophages in 96-well plates (10^4 cells/well). Then, cells were incubated for 1 h with FX (10, 30 and 50 µM). The positive reference compound used was Dex (1 µM) (Sigma-Aldrich, St. Louis, MO, USA). Inflammatory response was induced by addition of LPS (1 μg/mL) except for control group. After 24 h, commercial enzyme-linked immunosorbent assay (ELISA) kit (Diaclone GEN-PROBE, Besançon, France) was used to quantify TNF-α according to the manufacturer’s protocol.

[7] = test system: IL-6 production in UVB-exposed HaCaT keratinocytes; experiment: IL-6 production in UVB-exposed HaCaT keratinocytes (ELISA); format: cell-based, human; conditions: 1 h prior to UVB, 24 h after exposure, vs UVB
Protocol: as §3
HaCaT cells (5 × 10^5 cells/well) were seeded in 6-well plates. After 24 h, cells were treated with FX (10, […] and 50 μM) for 1 h and then, were exposed to UVB. After 24 h, supernatant fluids were collected and ELISA kit (Diaclone GEN-PROBE, Besançon, France) was employed to quantify IL-6 according to the manufacturer’s protocol. The absorbance at 450 nm was read by a microplate reader (Labysystem Multiskan EX, Thermo Scientific, New York, NY, USA).

[8] = cited from earlier work
[9] = test system: IL-6 and IL-8 production in TNF-α-stimulated HaCaT keratinocytes; experiment: IL-6 and IL-8 production in TNF-α-stimulated HaCaT keratinocytes (ELISA); format: cell-based, human; conditions: all concentrations tested (10, 30 and 50 μM), 1 h pre-treatment, TNF-α 10 ng/mL 24 h, vs TNF-α group
Protocol: HaCaT cells were seeded in 6-well plates (5 × 10^5 cells/well). After 24 h, cells were washed twice (PBS, 4 °C) and medium containing FX (10, 30 and 50 μM) or Dex (1 μM) was added for 1 h, and then cells were stimulated with TNF-α (10 ng/mL) except for control group. After 24 h, supernatant fluids were collected and stored −80 °C until measurements. Commercial enzyme-linked immunosorbent assay (ELISA) kit (Diaclone GEN-PROBE, Besançon, France) was used to quantify IL-6 and IL-8 according to the manufacturer’s protocol.

[10] = 24 h after treatment, SRB assay

## C[C@@H]1C[C@H]2[C@@H]3CCC4=CC(=O)C=C[C@]4(C)[C@@]3(F)[C@@H](O)C[C@]2(C)[C@@]1(O)C(=O)CO [Dex, dexamethasone]
[1]
  epidermal hyperplasia (epidermal thickness, H&E): significant improvement
  myeloperoxidase (MPO) activity in skin homogenates: markedly diminished
[1]; p < 0.001
  epidermal COX-2-positive stained cells (immunohistochemistry): confirmed the anti-inflammatory effect
  skin edema (weight of 1 cm^2 punch biopsy): significantly reduced

## CC(=O)O[C@H]1CC(C)(C)C(=C=C/C(C)=C/C=C/C(C)=C/C=C/C=C(C)/C=C/C=C(\C)C(=O)C[C@@]23O[C@]2(C)C[C@@H](O)CC3(C)C)[C@](C)(O)C1 [FX, fucoxanthin]
[2]; 10 μM
  % Viability HaCaT keratinocytes (24 h): 111.2 ± 2.1%
[2]; 30 μM
  % Viability HaCaT keratinocytes (24 h): 105.2 ± 4.0%
[2]; 50 μM
  % Viability HaCaT keratinocytes (24 h): 103.9 ± 3.2%
[2]; 100 μM
  % Viability HaCaT keratinocytes (24 h): 101.5 ± 2.2%
[2]; [10]
  IC50: > 100 µM
[3]
  UVB-induced mortality (LDH activity): significantly decreased
[4]; 10 μM
  % Viability THP-1 macrophages (24 h): 97.5 ± 2.0%
[4]; 30 μM
  % Viability THP-1 macrophages (24 h): 96.5 ± 1.2%
[4]; 50 μM
  % Viability THP-1 macrophages (24 h): 103.7 ± 1.1%
[4]; 100 μM
  % Viability THP-1 macrophages (24 h): 90.7 ± 0.5%
[4]; [10]
  IC50: > 100 µM
[5]; 10 μM
  reduction of ROS levels: 23%
[5]; 30 μM
  reduction of ROS levels: 31%
[5]; 50 μM
  reduction of ROS levels: 32%
[6]; 50 µM pre-treatment, LPS-stimulated, p < 0.001, similar values to Dex 1 μM
  TNF-α production: significant reduction
[6]; all concentrations tested (10, 30 and 50 μM), 1 h pre-treatment, LPS 1 μg/mL 24 h, vs LPS group
  TNF-α production: significantly reduced
[7]; 10 μM
  inhibition of IL-6 levels: 23%
[7]; 30 μM
  inhibition of IL-6 levels: 31%
[7]; 50 μM
  inhibition of IL-6 levels: 59%
[8]
  partition coefficient (log P): 6.83–7.54
[9]
  IL-6 production: significantly reduced
  IL-8 production: significantly reduced
